Experimental data reported in publication PMC11984924, “Dipeptidic Phosphonates: Potent Inhibitors of Pseudomonas aeruginosa Elastase B Showing Efficacy in a Murine Keratitis Model” (Advanced Science, 2025).

Key:
[1] = molecular target: T1, 5‐hydroxytryptamin transporter (5‐HTT) (Homo sapiens, UniProt P31645); experiment: SafetyScreen44: 5-HTT binding
T1 construct: Eurofins Cerep SA (CRO)
Description: (§1) Moreover, we explored the safety profile of frontrunner (R)‐30 in more detail in order to detect additional crucial off‐target interactions. For this purpose, we employed the SafetyScreen44 in vitro panel comprising selected binding, inhibition and uptake assays.^[ [35] ^] The panel is a specialized pharmacological profiling tool that tests compounds against 44 key molecular targets, aiming to identify potential safety risks early in drug discovery. […]
(§2) The off-target Safety Screen44TM was performed by the CRO Eurofins Cerep SA (Celle-
(§3) L'Evescault, France) according to their protocols.[13] […]
(§4) MMP-1 MMP-2 MMP-3 TACE (ADAM17)
(§5) Compound [% inhibition at [% inhibition at [% inhibition at [% inhibition at 100

cyclooxygenase 1 (COX1) = molecular target: T2, cyclooxygenase 1 (COX1) (Homo sapiens, UniProt P23219); experiment: SafetyScreen44: COX1; format: biochemical
T2 construct: Eurofins Cerep SA (CRO)
T2 sequence (P23219 24-599): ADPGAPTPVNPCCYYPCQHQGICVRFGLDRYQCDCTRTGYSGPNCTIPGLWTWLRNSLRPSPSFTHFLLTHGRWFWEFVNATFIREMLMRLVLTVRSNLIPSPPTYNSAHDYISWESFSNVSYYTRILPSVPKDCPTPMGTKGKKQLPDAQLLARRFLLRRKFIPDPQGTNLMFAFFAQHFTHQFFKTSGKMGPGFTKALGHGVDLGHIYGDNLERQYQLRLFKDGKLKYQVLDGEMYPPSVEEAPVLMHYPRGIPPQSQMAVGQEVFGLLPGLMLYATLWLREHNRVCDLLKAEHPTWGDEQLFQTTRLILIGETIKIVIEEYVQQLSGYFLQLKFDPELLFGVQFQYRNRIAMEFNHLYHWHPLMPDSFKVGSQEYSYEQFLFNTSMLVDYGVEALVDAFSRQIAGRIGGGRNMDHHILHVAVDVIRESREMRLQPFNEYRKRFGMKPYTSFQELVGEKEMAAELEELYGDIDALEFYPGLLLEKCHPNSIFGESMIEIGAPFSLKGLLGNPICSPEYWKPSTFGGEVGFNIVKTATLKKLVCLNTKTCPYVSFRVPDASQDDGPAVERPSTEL
Description: as §1, §2, §3, §4, §5

[2] = Stability in minipig liver microsomes; format: in vitro ADME; conditions: Göttingen, read-out: Minipig Liver Microsomes t1/2
Method: (§6) Samples were stored on ice until the end of the incubation and precipitated protein was removed by centrifugation (15 min, 4 °C, 4,000 g). Concentration of the remaining test […]
(§7) compound at the different time points was analyzed by HPLC-MS/MS (TSQ Quantum Access […]
(§8) MAX, Thermo Fisher, Dreieich, Germany) and used to determine half -life (t1/2) and intrinsic […]
(§9) Species profiling was conducted as above using 0.5 mg/mL pooled mouse, rat or minipig liver microsomes (Xenotech, Kansas City, USA) with 2 mM NADPH and 10 mM MgCl2 and testosterone, verapamil and ketoconazole as reference compounds. […]
(§10) Thermo Fisher, Dreieich, Germany) and used to determine half-life (t1/2).
(§11) Table S2: Additional in vitro ADMET data for selected dipeptides. n.d.: not determined.
(§12) Kinetic Liver S9 Clint [µL/mg/min] Plasma t1/2 [min] LogD7.4 […]
(§13) pH 7.4 [µM] Mouse Human Mouse Human

[3] = Stability in rat liver microsomes; format: in vitro ADME; conditions: Wistar, read-out: Rat Liver Microsomes t1/2
Method: as §6, §7, §8, §9, §10, §11, §12, §13

zebrafish embryos = experiment: Zebrafish embryo toxicity; format: in vivo; conditions: up to 100 µM, up to five days post fertilization
Method: Table S8: Percent (%) inhibition of the metabolic activity of three human cell lines HepG2 (hepatocellular carcinoma cells), HEK293 (human embryonic kidney 293 cells) and A549 (lung carcinoma epithelial cells). Results are means and SD of at least two independent ex periments.
3.10 Evaluation of Zebrafish embryo toxicity
The experiment was performed according to a procedure described in the literature with minor modifications using zebrafish embryos of the AB wild -type line at 1 day post fertilization (dpf). A detailed protocol has been given in our recent publication.[16]
Starting exposure ar 2 dpf. Ten larvae were tested for each condition. Dpf: days post fertilization.
3.11 Tolerability study in male CD1 mice
This in vivo experiment was carried out at the CRO Selvita (Zagreb, Croatia). The study was performed in an AAALAC I- approved Facility. The standard study plan relating to this study was reviewed by the Ethics Committee (CARE- Zagreb) as required by International Laws/Regulations and Croatian Low on Animal Welfare (“The Animal Protection Act”, Official Gazette, NN 135/06 and NN 37/13) and Animal Welfare Officer. Animals were kept in solid […]
bottom cages ([…] S.p A., Italy, Type III polysulphone cage); 425 mm x 266 mm x 180 mm; 3 animals in each cage. The animals were kept on 4 cm thick layer of corn cob grit, […]
(1 picture or pasted object on this page, not shown here)

T1 sequence (P31645 whole entry): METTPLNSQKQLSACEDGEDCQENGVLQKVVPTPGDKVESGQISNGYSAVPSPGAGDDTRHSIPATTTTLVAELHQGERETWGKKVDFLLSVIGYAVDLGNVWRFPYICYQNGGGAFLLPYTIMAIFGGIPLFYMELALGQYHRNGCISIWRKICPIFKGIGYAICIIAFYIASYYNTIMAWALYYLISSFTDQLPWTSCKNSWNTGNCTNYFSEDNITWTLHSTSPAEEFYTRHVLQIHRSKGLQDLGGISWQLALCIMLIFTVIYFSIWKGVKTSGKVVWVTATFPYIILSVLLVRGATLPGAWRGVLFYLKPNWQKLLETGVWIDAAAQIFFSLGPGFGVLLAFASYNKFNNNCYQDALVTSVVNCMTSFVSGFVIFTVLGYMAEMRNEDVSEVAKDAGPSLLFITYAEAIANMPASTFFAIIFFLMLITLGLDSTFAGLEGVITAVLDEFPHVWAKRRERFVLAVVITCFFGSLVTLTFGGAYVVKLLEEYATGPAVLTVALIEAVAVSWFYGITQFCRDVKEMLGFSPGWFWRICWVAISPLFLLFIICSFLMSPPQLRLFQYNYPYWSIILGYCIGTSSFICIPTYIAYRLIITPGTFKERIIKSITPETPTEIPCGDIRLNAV

Molecule CC(=O)c1ccc(NC(=O)[C@@H](NC(=O)[C@@H](CC(C)C)P(=O)(O)O)C(C)C)cc1 [(R)‐30] has an inhibition at 100 µM [1] of 84.8% and an inhibition at 100 µM (cyclooxygenase 1 (COX1)) of 81.5%.

For CC(=O)c1ccc(NC(=O)[C@@H](NC(=O)C(CC(C)C)P(=O)(O)O)C(C)C)cc1 (some centres unmarked) [compound 30], the half-life at 1 µM [2] was over 2 h, the half-life at 1 µM [3] was over 2 h and the Zebrafish embryo toxicity (zebrafish embryos) was “no signs of toxicity”.
